Measured values from article PMC12196476, “New Nitrogen-, Oxygen-, and Sulfur-Containing Heterocyclic Compounds as Anti-Colon Cancer Agents: Synthesis, Multitargeted Evaluations, Molecular Docking Simulations and ADMET Predictions” (Pharmaceuticals, 2025).

What was measured:
[1] = DPPH radical scavenging assay; conditions: three independent experiments; read-out: Mean IC50 (mM) for initial DPPH radicals ± SD
Procedure: The antioxidant activities of the studied compounds were assessed using the 1,1-diphenyl-2-picrylhydrazyl (DPPH) radical scavenging method as detailed by Bersuder et al.. The results were expressed as IC50 (mM)—the concentration of the test compound required to neutralize 50% of DPPH radicals.
The antioxidant efficiencies of target compounds were determined using the 1,1-diphenyl-2-picrylhydrazyl (DPPH) radical scavenging method as detailed by Bersuder et al.. […]
S3.2. Evaluation of Biological Activities.
S3.2.1. In vitro DPPH radical scavenging assay.
The antioxidant efficiencies of compounds—3a−e, 8, 9a−c, 13, 14, 17, 18a−h, 20, 22, 23, and 25—were
determined using the 1,1-diphenyl-2-picrylhydrazyl (DPPH) radical scavenging method as
detailed by Bersuder et al.. Fundamentally, the purple color of the stabilized DPPH radical
fades in the presence of an antioxidant, thus, the change of absorbance can be followed
spectrophotometrically at 519 nm. In the assay, equal volumes (0.5 mL) of DPPH ethanolic solution
and each compound (0-2 mg/mL in DMSO) or butylated hydroxytoluene (BHT) as the reference
were mixed well by shaking. The negative control consisted of the same amount of DMSO and
DPPH solution. After, incubation all mixtures at room temperature in the dark for one hour, the
absorbance of the residual DPPH radicals was measured at 519 nm using the UV‐vis
spectrophotometer. The DPPH radical scavenging activity of each compound (%) was calculated
Scavenging activity = (1 − Acompound/AControl) * 100, where Acompound and Acontrol the absorbance values
of each tested compound (or BHT) and the negative control, respectively. The half maximal
inhibitory concentration (IC50) for each compound in mg/mL was deduced by graphing the dose-
response curve relating the scavenging activity (%) to the compound concentration. Data points
represent the mean ± standard deviation (SD) of three independent determinations.

[2] = system: LoVo colon carcinoma cells; experiment: Cell viability, LDH release assay, LoVo; conditions: for viability at 100 µg/mL / IC50: Homo sapiens, LoVo, 48 h; for viability at 100 µg/mL: read-out: Mean % of viable cells ± SD, LoVo, 100 µg/mL, 48 h, LDH release assay; for IC50: read-out: Mean IC50 Values in µM ± SD, LoVo cells
Procedure: (§1) The studied compounds were also screened for their cytotoxic effects on HCT-116 and LoVo colon carcinoma cells, as well as normal HUVECs, using the standard LDH assay at a concentration of 100 µg/mL.
(§2) The antiproliferative activities of the newly synthesized compounds 3a–e, 8, 9a–c, 13, 14, 17, 18a–h, 20, 22, 23 and 25 were examined on human colon HCT-116 and LoVo cell lines as well as HUVEC (American Type Culture Collection, Manassas, VA, USA). […]
(§3) S3.2.4. Cell culture and viability assay.
(§4) The cytotoxic activities of the newly synthesized compounds (3a-e, 8, 9a-c, 13, 14, 17, 18a-h, 20, 22,
(§5) 23, and 25) were examined on human colon cancer cell lines HCT-116 and Lovo (American Type
(§6) Culture Collection, USA). Various concentrations (50, 100, 200, and 400 μg/mL) of test compounds
(§7) were prepared in Dulbecco’s Modified Eagles Medium (PAN-Biotech, Barcelona, Spain),

[3] = molecular target: recombinant human LDHA protein (Homo sapiens, UniProt P00338); experiment: In vitro LDHA inhibitory assay (NADH consumption); format: biochemical; conditions: for inhibition at 100 µg/mL: three replicates, read-out: Mean Inhibition Percent ± SD, LDHA
Source text: The LDHA inhibitory efficiencies were investigated on Spectramax M2 spectrofluorometer via measuring the amounts of the consumed NADH^40 using an NAD^+/NADH quantification kit. […]
S3.2.3. In vitro LDHA inhibitory assay.
The LDHA inhibitory activity of the test compounds was investigated using Spectramax M2
spectrofluorometer by measuring the amounts of the consumed NADH [42] employing
NAD+/NADH quantification kit. Briefly, the assay medium containing various concentrations of
each test compound (50, 100, 200 and 300 μg/mL) was incubated in assay medium composed of 20
mM of HEPES-K+ buffer (pH 7.2), 20 μM of NADH, 2 mM of pyruvate and 10 ng of purified
recombinant human LDHA protein for 10 min utes. The activity of LDHA would result in reduction
of pyruvate into lactate with concomitant oxidation of NADH to NAD +. Since NADH (reduced
LDHA, could be inversely quantified by monitoring the change in the intensity of the fluorescence
at 340 nm over a 10-minute period. The rate of the fluorescence change (slope) in treated samples
was compared to that obtained from negative control experiment (100 % enzymatic activity) to
determine the percentage of inhibition. The IC50 value—defined as the compound concentration
required to reduce the luminescence by 50%, compared to untreated control wells—was
determined for each compound from the corresponding dose–response curve generated by
plotting LDHA inhibition (%) against compound concentration.
was used as the reference LDHA inhibitor. […]

[4] = Cell viability, LDH release assay, normal HUVECs; conditions: human, normal HUVECs, Mean % of viable cells ± SD, HUVEC
Procedure: as §1, §2
medium served used as negative and positive controls, respectively. Percentages of viable cells […]
were calculated based on relative optical density (OD) values (at 550 nm) for compound-treated […]
wells (final concentration of 100 μg/mL), compared to the negative control, and expressed as mean value (%) ± SD from two replicates. Graphing dose-response curves representing the compound […]
concentration versus the percentages of viable cells was also conducted to deduce the half - […]
Additionally, the safety profiles of the studied compounds were assessed against normal cells […]
(HUVECs) at final concentration of 100 μg/mL . HUVECs were grown in Dulbecco’s Modified Eagle’s Medium supplemented with 10% FBS, 2 mM glutamine (Sigma Aldrich), 100 units/mL penicillin and […] streptomycin (Life Technologies; Paisley, UK). […]

[5] = molecular target: PDK-1 (Homo sapiens, UniProt Q15118); experiment: In vitro PDK-1 inhibition assay (Kinase-Glo luminescent kinase kit); format: biochemical; conditions: for inhibition at 100 µg/mL: three replicates, read-out: Mean Inhibition Percent ± SD, PDK-1
Procedure: Principally, the PDK-1 inhibitory activities were evaluated using the non-radioactive Kinase-Glo™ Luminescent Kinase Kit (Promega Corporation, Madison, WI, USA) following the instructions of the manufacturer.
S3.2.2. In vitro PDK-1 inhibition assay.
The PDK-1 inhibitory activities of the test compounds were evaluated using the non-radioactive
Kinase-Glo™ Luminescent Kinase kit (Promega Corporation, Madison, WI, USA), following the
manufacturer’s protocol. Briefly, 5 μL of assay buffer—containing 10 × 250 mM Tris-HCl, 50 mM
MgCl2, 5 mM ethyleneglycol-bis(β-aminoethylether)-N,N,N′,N′-tetraacetic acid (EGTA), 10 mM
ethylenedi- aminetetraacetic acid (EDTA), and 10 mM dithiothreitol (DTT)—was added to each
well of a 96-well plate, along with 25 μL of distilled water. Subsequently, 5 μL of each test
compound at various concentrations (50, 100, 200 and 300 μg/mL in 1% DMSO) was added to the
respective wells, except for the two control wells, which received 5 μL of either PBS buffer or 1%
DMSO. Then, 5 μL of pyruvate dehydrogenase E1 (PDH E1) protein (10 μM) and 5 μL of ATP
(10 μM) were added to each well. To initiate phosphorylation, 5 μL of PDK-1 (20 μM) in protein
buffer (1 mM MgCl2, 2000 mM KCl, 40 mM K3PO4) was added to all the wells except the control
wells, which received 5 μL of protein buffer instead. The plate was then mixed thoroughly and
incubated at 37 °C for 30 minutes. After incubation, 50 μL of kinase-Glo® reagent was added to each
well, followed by a 10-minute incubation at room temperature with gentle shaking to stabilize the
luminescent signal. Luminescence was then measured using a microplate reader.
The IC50 value—defined as the concentration of a compound required to reduce luminescence by
50%, compared to untreated control wells—was determined for each compound from the
corresponding dose–response curve generated by plotting PDK-1 inhibition (%) versus compound
concentration. Sodium dichloroacetate (SDA, 1000 μM) was used as a reference PDK-1inhibitor. […]

[6] = system: HCT-116 colon carcinoma cells; experiment: Cell viability, LDH release assay, HCT-116; conditions: for viability at 100 µg/mL / IC50: Homo sapiens, HCT-116, 48 h; for viability at 100 µg/mL: read-out: Mean % of viable cells ± SD, HCT-116, 100 µg/mL, 48 h, LDH release assay; for IC50: read-out: Mean IC50 Values in µM ± SD, HCT-116 cells
Procedure: as §1, §2, §3, §4, §5, §6, §7

[7] = 0.1% Triton X-100 in assay medium

PDK-1, sequence (Q15118 29-436): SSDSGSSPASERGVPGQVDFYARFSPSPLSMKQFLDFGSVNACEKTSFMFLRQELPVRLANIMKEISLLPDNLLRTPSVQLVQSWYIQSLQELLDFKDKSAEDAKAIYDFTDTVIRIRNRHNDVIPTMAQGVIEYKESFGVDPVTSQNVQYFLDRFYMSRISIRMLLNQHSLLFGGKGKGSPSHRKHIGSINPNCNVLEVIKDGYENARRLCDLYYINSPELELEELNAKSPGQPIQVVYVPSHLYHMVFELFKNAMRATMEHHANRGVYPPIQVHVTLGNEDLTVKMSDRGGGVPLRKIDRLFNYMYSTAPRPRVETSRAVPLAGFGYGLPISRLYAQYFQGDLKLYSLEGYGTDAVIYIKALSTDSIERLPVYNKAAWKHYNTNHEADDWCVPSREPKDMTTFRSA

Row | Compound | IC50 [1] [mM] | viability at 100 µg/mL [2] [%] | inhibition at 100 µg/mL [3] [%] | viability at 48 h, 100 µg/mL [4] [%] | inhibition at 100 µg/mL [5] [%] | viability at 100 µg/mL [6] [%] | IC50 [2] [µM] | IC50 ([3]; three independent experiments, read-out: Mean IC50 µM ± SD, LDHA) [µM] | IC50 ([5]; three independent experiments, read-out: Mean IC50 µM ± SD, PDK-1) [µM] | IC50 [6] [µM] | inhibition at 1000 µM ([3]; SO at 1000 µM (111.03 µg/mL), read-out: Mean Inhibition Percent, LDHA (reference inhibitor)) [%] | Mean % of viable cells, LoVo (positive control) [2, 7] [%] | Mean % of viable cells, HCT-116 (positive control) [6, 7] [%]
1 | Cc1cc(C(C)(C)C)c(O)c(C(C)(C)C)c1 [BHT, butylated hydroxytoluene, reference compound] | 0.245 ± 0.027 |  |  |  |  |  |  |  |  |  |  |  | 
2 | CCOC(=O)c1c(/N=C/c2cc(Br)c(O)c(OC)c2)sc2c1CCC(c1ccccc1)C2 (stereo not drawn) [Compound 3a, (E)-Ethyl2-((3-bromo-4-hydroxy-5-methoxybenzylidene)amino)-6-phenyl-4,5,6,7-tetrahydrobenzo[b]thiophene-3-carboxylate] | 0.214 ± 0.027 | 57.7 ± 1.53 | 25.8 ± 2.48 | 85 ± 1.73 | 25.1 ± 3.04 | 60.7 ± 3.06 |  |  |  |  |  |  | 
3 | COc1cc(OC)c(/C=N/c2sc3c(c2C#N)CCCC3)c(OC)c1 [Compound 3b, (E)-2-((2,4,6-Trimethoxybenzylidene)amino)-4,5,6,7-tetrahydrobenzo[b]thiophene-3-carbonitrile] | 0.522 ± 0.025 | < 29 | 82.8 ± 3.18 | ~90 | 94.7 ± 2.33 | < 29 | 190 | 167 ± 10.1 | 147 ± 5.95 | 170 |  |  | 
4 | COc1cc(/C=N/c2ncnc3sc4c(c23)CCCC4)cc(Br)c1O [Compound 3c, (E)-2-Bromo-6-methoxy-4-(((5,6,7,8-tetrahydrobenzo[4,5]thieno[2,3-d]pyrimidin-4-yl)imino)methyl)phenol] | 0.476 ± 0.038 | 95.7 ± 1.53 | 40 ± 1.41 | 93 ± 2.65 | 7.6 ± 0.85 | 89.3 ± 4.16 |  |  |  |  |  |  | 
5 | Oc1ccc2ccccc2c1/C=N/c1ncnc2sc3c(c12)CCCC3 [Compound 3e, (E)-1-(((5,6,7,8-Tetrahydrobenzo[4,5]thieno[2,3-d]pyrimidin-4-yl)imino)methyl) naphthalene-2-ol] | 0.89 ± 0.039 | 62.3 ± 2.52 | 28.3 ± 1.84 | 96.7 ± 1.16 | 31.2 ± 3.18 | 57 ± 1.73 |  |  |  |  |  |  | 
6 | O=c1[nH]cc(F)c(=O)[nH]1 [Compound 5-FU, 5-Fluorouracil, reference compound] |  |  |  |  |  |  | 20 ± 3.21 |  |  | 27 ± 1.87 |  |  | 
7 | CCOC(=O)c1sc(N2C(=O)CSCC2=O)nc1C [Compound 8, Ethyl 2-(3,5-Dioxothiomorpholino)-4-methylthiazole-5-carboxylate] | 1.52 ± 0.07 | 13.5 ± 0.71 | 23.2 ± 1.06 | 84.6 ± 2.54 | 16.6 ± 2.19 | 26.5 ± 2.12 | 320 ± 7.44 |  |  | 410 ± 13.5 |  |  | 
8 | CCOC(=O)c1sc(/N=C/c2cc(Br)c(O)c(OC)c2)nc1C [Compound 9a, Ethyl (E)-2-((3-bromo-4-hydroxy-5-methoxybenzylidene)amino)-4-methyl thiazole-5-carboxylate] | 1.55 ± 0.035 | 65.3 ± 3.54 | 40.5 ± 2.19 | 70.3 ± 1.53 | 26.9 ± 2.62 | 72 ± 2.65 |  |  |  |  |  |  | 
9 | CCOC(=O)c1sc(/N=C/c2cc(OC)c(OC)c(OC)c2)nc1C [Compound 9b, Ethyl(E)-4-methyl-2-((3,4,5-trimethoxybenzylidene)amino)thiazole-5-carboxylate] | 1.81 ± 0.115 | 60.3 ± 2.83 | 33.4 ± 1.98 | 81.7 ± 2.52 | 30.1 ± 1.56 | 54 ± 4.58 |  |  |  |  |  |  | 
10 | CCOC(=O)c1sc(/N=C/c2c(O)ccc3ccccc23)nc1C [Compound 9c, Ethyl(E)-2-(((2-hydroxynaphthalen-1-yl)methylene)amino)-4-methylthiazole-5-carboxylate] | 0.881 ± 0.041 | 60.3 ± 2.12 | 67.3 ± 3.32 | 80.7 ± 3.22 | 48.8 ± 1.77 | 64.3 ± 3.06 |  |  |  |  |  |  | 
11 | COc1cc2nc(C)n(-c3ccc(-c4nc5ccccc5s4)cc3)c(=O)c2cc1OC [Compound 13, 3-(4-(Benzo[d]thiazol-2-yl)phenyl)-6,7-dimethoxy-2-methylquinazolin-4(3H)-one] | 1.82 ± 0.188 | 86.5 ± 2.12 | 40.2 ± 3.18 | 84 ± 2.33 | 40.5 ± 2.76 | 71.5 ± 2.12 |  |  |  |  |  |  | 
12 | NC(=O)C(=O)O [SO, sodium oxamate, reference compound] |  |  |  |  |  |  |  |  |  |  | 100 |  | 
13 | Triton X-100 [reference compound] |  |  |  |  |  |  |  |  |  |  |  | 0 | 0
